Assay results reported in US9567345B2, “Pharmaceutically active pyrazolo-triazine derivatives” (LEAD DISCOVERY CENTER GMBH, priority 2012, dated 2017).
Where two headings read alike, the source gives them in different places.

How the values were obtained:
Type in all cases: biochemical
CDK7/CycH/Mat1 = CDK7/CycH/Mat1 (Homo sapiens, UniProt P50613); test: CDK7 Enzymatic Activity Assay (Lance Kinase Activity Assay, FRET)
Description: (§1) This protocol describes how the Lance Kinase Activity Assay was performed to determine IC50 values of compounds of general formula (I) against CDK/Cyclin complexes. The principle behind this enzymatic assay is based upon the phosphorylation of the Ulight-Peptide Substrat. It is detected by using a specific EU-labeled anti-phospho peptide antibody.
(§2) Binding of an inhibitor to the kinase prevents phosphorylation of the Ulight-MBP Substrat, resulting in a loss of FRET.
CDK7 Enzymatic Activity Assay
(§3) The compounds of general formula (I) exemplary summarized in Table 1 were diluted from a 10 mM DMSO stock solution 1:10 in a total volume of 15 μl DMSO. This compound predilution was then serial diluted 1:3 over 8 steps in DMSO and briefly spun down. Each compound solution was now diluted 1:20 in Enzymatic Buffer (HEPES: 50 mM, pH: 7.5; MgCl2: 10 mM; EGTA: 1 mM; DTT: 2 mM; Tween-20: 0.01%), mixed thoroughly and spun down.
(§4) For positive controls, 2 μl of DMSO working solution were mixed with 6 μl CDK7/CycH/Mat1/substrate working solution and 2 μl ATP working solution. Positive and negative controls were calculated from at least 8 different wells. The 384 well plates were mixed in a Teleshaker plate mixer (Beckman Coulter, Brea, Calif., USA) at 2000 rpm for 40 sec, and incubated for 1 h at room temperature before addition of 10 μl LANCE Detection Buffer (1×; EDTA: […]; Eu-Anti-P-MBP: 4 nM) per well. Plates were mixed in a Teleshaker plate mixer (Beckman Coulter, Brea, Calif., USA) at 2000 rpm for 40 sec, followed by incubation with Detection Buffer for 1 h, and reading. […] IC50 values were determined from the sigmoidal dose response curves with the software Quattro Workflow (Quattro GmbH, Munich, Germany).

CDK9/Cyclin T1 = CDK9/Cyclin T1 (Homo sapiens, UniProt P50750); test: CDK9 Enzymatic Activity Assay (Lance Kinase Activity Assay, FRET); conditions: for IC50: Table 5B, class symbols per IC50 [nM] ranges of b581, read-out: CDK9: Selectivity of CDK7 inhibition over CDK9 inhibition
Chain of CDK9/Cyclin T1 (P50750 whole entry): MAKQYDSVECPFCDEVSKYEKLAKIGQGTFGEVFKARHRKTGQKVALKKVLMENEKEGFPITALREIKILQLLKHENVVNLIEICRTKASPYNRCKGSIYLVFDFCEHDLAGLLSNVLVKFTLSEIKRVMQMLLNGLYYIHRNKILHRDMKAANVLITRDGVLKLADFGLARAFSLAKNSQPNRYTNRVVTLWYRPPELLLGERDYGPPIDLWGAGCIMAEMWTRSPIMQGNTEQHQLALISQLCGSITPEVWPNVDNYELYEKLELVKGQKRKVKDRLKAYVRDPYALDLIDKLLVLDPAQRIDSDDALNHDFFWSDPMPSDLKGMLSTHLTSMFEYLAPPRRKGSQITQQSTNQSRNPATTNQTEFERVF
Chain of CDK9/Cyclin T1 (O60563 whole entry partner): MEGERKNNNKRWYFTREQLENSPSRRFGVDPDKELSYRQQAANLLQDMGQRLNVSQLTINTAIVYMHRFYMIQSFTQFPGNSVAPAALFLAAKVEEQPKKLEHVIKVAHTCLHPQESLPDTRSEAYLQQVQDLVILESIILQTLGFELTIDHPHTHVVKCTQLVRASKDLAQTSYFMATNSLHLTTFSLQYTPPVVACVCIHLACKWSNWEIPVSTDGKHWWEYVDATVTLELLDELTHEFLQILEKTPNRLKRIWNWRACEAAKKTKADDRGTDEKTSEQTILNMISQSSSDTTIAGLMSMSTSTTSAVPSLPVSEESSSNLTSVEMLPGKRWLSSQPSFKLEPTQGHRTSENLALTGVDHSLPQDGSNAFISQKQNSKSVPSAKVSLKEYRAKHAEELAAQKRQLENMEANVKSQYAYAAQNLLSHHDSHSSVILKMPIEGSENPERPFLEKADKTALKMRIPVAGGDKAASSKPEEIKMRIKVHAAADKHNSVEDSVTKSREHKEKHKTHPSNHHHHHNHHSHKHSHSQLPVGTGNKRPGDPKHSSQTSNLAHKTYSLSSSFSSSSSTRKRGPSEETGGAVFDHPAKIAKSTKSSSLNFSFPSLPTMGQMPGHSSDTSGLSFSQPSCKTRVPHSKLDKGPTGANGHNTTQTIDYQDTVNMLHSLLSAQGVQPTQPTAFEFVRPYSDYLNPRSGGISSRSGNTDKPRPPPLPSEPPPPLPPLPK
Description: as §1, §2
CDK9 Enzymatic Activity Assay
as §3
as §4, with “CDK9/cyclin T1/substrate” for “CDK7/CycH/Mat1/substrate”

CDK2/CycA = molecular target: T1, CDK2/CycA (Homo sapiens, UniProt P24941); test: CDK2 Enzymatic Activity Assay (Lance Kinase Activity Assay, FRET); conditions: for IC50: Table 5B, class symbols per IC50 [nM] ranges of b581, read-out: CDK2: Selectivity of CDK7 inhibition over CDK2 inhibition
T1 construct: purchased Proqinase
Description: as §1, §2
CDK2 Enzymatic Activity Assay
as §3
as §4, with “CDK2/CycA/substrate” for “CDK7/CycH/Mat1/substrate”, “(EDTA:” for “(1×; EDTA:”

[1] = CDK7/CycH/Mat1, 25 μM ATP final, class ranges, read-out: CDK7: IC50 [nM] for CDK7 inhibition

Chain of CDK7/CycH/Mat1 (P50613 whole entry): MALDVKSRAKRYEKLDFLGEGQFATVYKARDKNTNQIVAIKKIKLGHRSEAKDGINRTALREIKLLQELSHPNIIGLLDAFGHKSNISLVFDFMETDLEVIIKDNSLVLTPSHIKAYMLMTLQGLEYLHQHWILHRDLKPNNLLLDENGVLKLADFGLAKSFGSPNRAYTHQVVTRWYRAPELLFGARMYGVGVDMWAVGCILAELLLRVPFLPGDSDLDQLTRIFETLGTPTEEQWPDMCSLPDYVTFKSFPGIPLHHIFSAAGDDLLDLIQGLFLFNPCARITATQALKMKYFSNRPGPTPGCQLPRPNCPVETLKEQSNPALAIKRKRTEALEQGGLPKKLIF

| IC50 (CDK7/CycH/Mat1; [1]) [nM] | IC50 (CDK9/Cyclin T1) [nM] | IC50 (CDK2/CycA) [nM] | multiplicity of the CDK9 activity in terms of the CDK7 activity (CDK9/Cyclin T1; selectivity CDK9 vs CDK7, enzymatic IC50 values) | multiplicity of the CDK2 activity in terms of the CDK7 activity (CDK2/CycA; selectivity CDK2 vs CDK7, enzymatic IC50 values) | IC50 (CDK7/CycH/Mat1; Table 6, read-out: IC50 CDK7) [nM] | Selectivity CDK7 over CDK9 (CDK9/Cyclin T1; Table 6) [fold] | Compound |
| --- | --- | --- | --- | --- | --- | --- | --- |
| < 5 | 50 to 500 | 50 to 500 |  |  |  |  | CC(C)c1cnn2c(NCc3ccccc3OS(=O)C(C)(C)C)nc(O[C@@H]3CCCNC3)nc12 (stereo partly drawn) [(VII-148), 2-(((8-isopropyl-2-((R)-piperidin-3-yloxy)pyrazolo[1,5-a][1,3,5]triazin-4-yl)amino)methyl)phenyl 2-methylpropane-2-sulfinate] |
| 10 to 25 | > 2500 | > 2500 |  |  |  |  | CC(C)c1cnn2c(NCc3ccccc3NC(=O)NCc3ccccc3)nc(O[C@@H]3CCCNC3)nc12 [(VII-113), (R)-1-benzyl-3-(2-(((8-isopropyl-2-(piperidin-3-yloxy)pyrazolo[1,5-a][1,3,5]triazin-4-yl)amino)methyl)phenyl)urea] |
| > 25 | > 2500 | > 2500 |  |  |  |  | CC(C)c1cnn2c(NCc3ccccc3-n3cccn3)nc(N3CC(N4CCC(F)(F)C4)C3)nc12 [(VIII-041), N-(2-(1H-pyrazol-1-yl)benzyl)-2-(3-(3,3-difluoropyrrolidin-1-yl)azetidin-1-yl)-8-isopropylpyrazolo[1,5-a][1,3,5]triazin-4-amine] |
| < 5 | 500 to 2500 | 500 to 2500 |  |  |  |  | CC(C)c1cnn2c(NCc3ccccc3-n3cccn3)nc(N3CCC4(CCCCN4)CC3)nc12 [(VIII-23), N-(2-(1H-pyrazol-1-yl)benzyl)-8-isopropyl-2-(1,9-diazaspiro[5.5]undecan-9-yl)pyrazolo[1,5-a][1,3,5]triazin-4-amine] |
| < 5 | 500 to 2500 | < 50 |  |  |  |  | CC(C)c1cnn2c(NCc3ccccc3-n3cncn3)nc(N[C@@H]3CCCNC3)nc12 [(VIII-33), (R)-N4-(2-(1H-1,2,4-triazol-1-yl)benzyl)-8-isopropyl-N2-(piperidin-3-yl)pyrazolo[1,5-a][1,3,5]triazine-2,4-diamine] |
| < 5 | < 50 | < 50 |  |  |  |  | CC(C)c1cnn2c(NCc3cccc4[nH]ncc34)nc(O[C@@H]3CCCNC3)nc12 [(VII-36), (R)-N-((1H-indazol-4-yl)methyl)-8-isopropyl-2-(piperidin-3-yloxy)pyrazolo[1,5-a][1,3,5]triazin-4-amine] |
| 5 to 10 | > 2500 | 50 to 500 |  |  |  |  | CC(C)c1cnn2c(NCc3ccccc3OS(C)(=O)=O)nc(O[C@@H]3CCCNC3)nc12 [(VII-147), (R)-2-(((8-isopropyl-2-(piperidin-3-yloxy)pyrazolo[1,5-a][1,3,5]triazin-4-yl)amino)methyl)phenyl methanesulfonate] |
| < 5 | < 50 | 50 to 500 |  |  |  |  | CC(C)c1cnn2c(NCc3cccc4ccncc34)nc(O[C@@H]3CCCNC3)nc12 [(VII-31), (R)-8-isopropyl-N-(isoquinolin-8-ylmethyl)-2-(piperidin-3-yloxy)pyrazolo[1,5-a][1,3,5]triazin-4-amine] |
| < 5 | 500 to 2500 | 50 to 500 |  |  |  |  | CNC1CCN(c2nc(NCc3ccccc3-n3cccn3)n3ncc(C(C)C)c3n2)CC1 [(VIII-25), N-(2-(1H-pyrazol-1-yl)benzyl)-8-isopropyl-2-(4-(methylamino)piperidin-1-yl)pyrazolo[1,5-a][1,3,5]triazin-4-amine] |
| > 25 | > 2500 | > 2500 |  |  |  |  | CC(C)c1cnn2c(NCc3ccccc3-n3cccn3)nc(CNCCN3CCCC3)nc12 [(XXX-4), N-(2-(1H-pyrazol-1-yl)benzyl)-8-isopropyl-2-(((2-(pyrrolidin-1-yl)ethyl)amino)methyl)pyrazolo[1,5-a][1,3,5]triazin-4-amine] |
| > 25 | > 2500 | > 2500 |  |  |  |  | COCCN1CCN(Cc2nc(NCc3ccccc3-n3cccn3)n3ncc(C(C)C)c3n2)CC1 [(XXX-9), N-(2-(1H-pyrazol-1-yl)benzyl)-8-isopropyl-2-((4-(2-methoxyethyl)piperazin-1-yl)methyl)pyrazolo[1,5-a][1,3,5]triazin-4-amine] |
| < 5 |  | 500 to 2500 |  |  |  |  | Cc1nccn1-c1ccccc1CNc1nc(O[C@@H]2CCCNC2)nc2c(C(C)C)cnn12 [(VII-23), (R)-8-isopropyl-N-(2-(2-methyl-1H-imidazol-1-yl)benzyl)-2-(piperidin-3-yloxy)pyrazolo[1,5-a][1,3,5]triazin-4-amine] |
|  |  |  | even lower than the CDK 7 activity | even lower than the CDK 7 activity |  |  | CN1CC[C@H](c2c(O)cc(O)c3c(=O)cc(-c4ccccc4Cl)oc23)[C@H](O)C1 [Flavopiridol, reference compound] |
|  | > 2500 | > 2500 |  |  |  |  | CC(C)c1cnn2c(NCc3ccccc3C(F)(F)F)nc(OC3CCN(C)CC3)nc12 [VII-058, 8-isopropyl-2-((1-methylpiperidin-4-yl)oxy)-N-(2-(trifluoromethyl)benzyl)pyrazolo[1,5-a][1,3,5]triazin-4-amine] |
| < 5 | > 2500 |  |  |  |  |  | Cc1nccn1-c1ccccc1CNc1nc(O[C@@H]2CCNC2)nc2c(C(C)C)cnn12 [(VII-25), (R)-8-isopropyl-N-(2-(2-methyl-1H-imidazol-1-yl)benzyl)-2-(pyrrolidin-3-yloxy)pyrazolo[1,5-a][1,3,5]triazin-4-amine] |
|  | > 2500 | 500 to 2500 |  |  |  |  | CC(C)c1cnn2c(NCc3ccccc3-n3cccn3)nc(OC3CNC3)nc12 [VII-141, N-(2-(1H-pyrazol-1-yl)benzyl)-2-(azetidin-3-yloxy)-8-isopropylpyrazolo[1,5-a][1,3,5]triazin-4-amine] |
| < 5 | 500 to 2500 |  |  |  |  |  | COc1ccccc1[C@H](C)Nc1nc(O[C@@H]2CCCNC2)nc2c(C(C)C)cnn12 [(VII-10), 8-isopropyl-N-((S)-1-(2-methoxyphenyl)ethyl)-2-((R)-piperidin-3-yloxy)pyrazolo[1,5-a][1,3,5]triazin-4-amine] |
| < 5 | > 2500 |  |  |  | < 5 | 909 | CC(C)c1cnn2c(NCc3ccccc3-c3ccccc3)nc(OC3CCN(C)CC3)nc12 [(VII-57), N-([1,1′-biphenyl]-2-ylmethyl)-8-isopropyl-2-((1-methylpiperidin-4-yl)oxy)pyrazolo[1,5-a][1,3,5]triazin-4-amine] |
| > 25 | > 2500 |  |  |  |  |  | CC(C)c1cnn2c(NCc3ccccc3N3CCOCC3)nc(OC3CCN(C)CC3)nc12 [(VII-60), 8-isopropyl-2-((1-methylpiperidin-4-yl)oxy)-N-(2-morpholinobenzyl)pyrazolo[1,5-a][1,3,5]triazin-4-amine] |
| < 5 | > 2500 |  |  |  |  |  | CC(C)Oc1ccccc1CNc1nc(OC2CCN(C)CC2)nc2c(C(C)C)cnn12 [(VII-66), N-(2-isopropoxybenzyl)-8-isopropyl-2-((1-methylpiperidin-4-yl)oxy)pyrazolo[1,5-a][1,3,5]triazin-4-amine] |
| < 5 | > 2500 |  |  |  |  |  | CC(C)c1cnn2c(NCc3ccccc3-c3cccnc3)nc(OC3CCN(C)CC3)nc12 [(VII-45), 8-isopropyl-2-((1-methylpiperidin-4-yl)oxy)-N-(2-(pyridin-3-yl)benzyl)pyrazolo[1,5-a][1,3,5]triazin-4-amine] |
| 5 to 10 | > 2500 |  |  |  |  |  | CC(C)c1cnn2c(NCc3ccccc3-n3cccn3)nc(N3CCCC34CCNC4)nc12 (stereo not drawn) [(VIII-13), N-(2-(1H-pyrazol-1-yl)benzyl)-8-isopropyl-2-(1,7-diazaspiro[4.4]nonan-1-yl)pyrazolo[1,5-a][1,3,5]triazin-4-amine] |
